Measurements: patent US5770759A, “Prostaglandins of the F series” (priority 1987, dated 1998)

Assays:
[1] = system: blood pressure; test: Change in blood pressure in anesthetized rats (Experiment 1); format: in vivo, Male Wister rat; settings: for Change in Blood Pressure (%): 1 mg/kg into tail vein, anesthetized rat, average of 5 data per group; for Blood Pressure: Table 2, class symbols
Procedure: Male Wister rat (8-week old) was anesthetized by intraperitoneally administering urethane (1.25 g/kg). Polyethylene tube was inserted into femoral artery and connected with a pressure transducer to measure blood pressure.
The test drugs were dissolved in ethanol, diluted with Ringer's solution before use and a dose of 1 mg/kg was administered into tale vein. The maximum concentration of ethanol was 2%. As reference, ethanol-Ringer's solution without containing test drugs was used and the effect was checked in each experiment without failing. The rate of change in blood pressure (%) was determined by average of 5 data per group.

[2] = system: mouse; test: Acute toxicity upon oral administration (Experiment 6); format: in vivo, Male Slc-ddY mouse; settings: mouse (5 weeks old)
Text: Using Male Slc-ddY mouse (5 weeks old), acute toxicity upon oral administration (LD50) was examined.

[3] = system: pulse; set-up: species or system Male Wister rat; settings: rat, in vivo
Procedure: Male Wister rat (8-week old) was anesthetized by intraperitoneally administering urethane (1.25 g/kg). A tachometer was operated by R wave of electrocardiogram of exterminal derivation. The effect of the tested 15-keto-PGEs on pulse is evaluated by the value calucurated from the following formula: [formula]

Row | Compound | Change in Blood Pressure (%) [1] | further results
1 | 13,14-dihydro-15-keto-20-ethyl-PGF2 α [Test Drug 15] | +24% | 
2 | 13,14-dihydro-15-keto-16-desbutyl-16-m-trifluoromethylphenoxy-PGF2 α methyl ester [Test Drug 23] | +5% | 
3 | 13,14-dihydro-15-keto-20-ethyl-16R,S-fluoro-11R-dehydroxy-11R-methyl-PGF2 α methyl ester [Test Drug 12] | +13% | 
4 | 13,14-dihydro-15-keto-9β,11α-PGF2 methyl ester [Test Drug 3] | +5% | 
5 | 13,14-dihydro-15-keto-20-ethyl-16R,S-fluoro-PGF2 α methyl ester [Test Drug 11] | +8% | 
6 | 13,14-dihydro-15-keto-20-methyl-PGF2 α methyl ester [Test Drug 14] | +10% | 
7 | CCCCCC(=O)CC[C@@H]1[C@@H](C/C=C\CCCC(=O)OC)[C@@H](O)C[C@H]1O [compound 1] | +12% | 
8 | 13,14-dihydro-15-keto-PGF1 α ethyl ester [Test Drug 24] | +27% | 
9 | CCCCCC(=O)CC[C@@H]1[C@@H](C/C=C\CCCC(=O)OCC)[C@@H](O)C[C@H]1O [Test Drug 2, 13,14-dihydro-15-keto-PGF2 α ethyl ester] | +17% | 
10 | 13,14-dihydro-15-keto-20-ethyl-PGF2 α isopropyl ester [Test Drug 18] | +16% | LD50 (oral) [2]: > 2000 mg/kg; Blood Pressure ([1]; rat): .uparw. (increase more than 10%)
11 | 13,14-dihydro-15-keto-20-ethyl-PGF2 α n-butyl ester [Test Drug 19] | +8% | 
12 | CCCCC[C@H](O)/C=C/[C@@H]1[C@@H](C/C=C\CCCC(=O)O)[C@@H](O)C[C@H]1O [PGF2 α, (Z)-7-[(1R,2R,3R,5S)-3,5-dihydroxy-2-{(E)-(3S)-3-hydroxy-1-octenyl}-cyclopentyl]-5-heptenoic acid, reference compound] |  | Pulse [3]: .dwnarw. → .uparw.; effect on pulse (in words) [3]: ephemeral decrease in pulse; Blood Pressure ([1]; rat): .dwnarw. → .uparw.; effect on blood pressure (in words) ([1]; rat): ephemeral decrease in pulse as well as blood pressure
13 | 13,14-dihydro-15-keto-20-ethyl-PGF1 α methyl ester [Test Drug 25] | +32% | 
14 | 13,14-dihydro-15-keto-20-n-butyl-PGF2 α methyl ester [Test Drug 22] | +14% | 
15 | 13,14-dihydro-15-keto-20-ethyl-PGF2 α ethyl ester [Test Drug 17] | +20% | 
16 | 13,14-dihydro-15-keto-PGF2 α methyl ester [Test Drug 1] | +14% | Blood Pressure ([1]; rat): .uparw. (increase more than 10%)
17 | 13,14-dihydro-15-keto-20-ethyl-PGF2 α methyl ester [Test Drug 16] | +26% | LD50 (oral) [2]: > 2000 mg/kg; Blood Pressure ([1]; rat): .uparw. (increase more than 10%)
18 | 13,14-dihydro-15-keto-17S-methyl-PGF2 α ethyl ester [Test Drug 13] | +18% | 
19 | 13,14-dihydro-15-keto-20-methoxy-PGF2 α methyl ester [Example 9] | +41% | 
20 | 13,14-dihydro-15-keto-16,16-dimethyl-PGF2 α ethyl ester [Test Drug 4] | +7% | 
21 | 13,14-dihydro-15-keto-16R,S-fluoro-PGF2 α [Test Drug 5] | +7% | 
22 | 13,14-dihydro-15-keto-20-ethyl-16R,S-fluoro-PGF2 α [Test Drug 10] | +35% | 
23 | 13,14-dihydro-15-keto-16R,S-fluoro-11R-dehydroxy-11R-methyl-PGF2 α methyl ester [Test Drug 8] | +44% | 
24 | CCCCCCCCC(=O)CC[C@@H]1[C@@H](C/C=C\CCCC(=O)OC)[C@@H](O)C[C@H]1O [Test Drug 21, 13,14-dihydro-15-keto-20-n-propyl-PGF2 α methyl ester] | +16% | 
25 | 13,14-dihydro-15-keto-16R,S-fluoro-PGF2 α methyl ester [Test Drug 6] | +18% | 
26 | 13,14-dihydro-15-keto-20-ethyl-11R-dehydroxy-11R-methyl-PGF2 α methyl ester [Example 15] | +7% | 
